Reference: article PMC7395068, “The evolution of strategies to minimise the risk of human drug-induced liver injury (DILI) in drug discovery and development” (Archives of Toxicology, 2020)
Where two headings read alike, the source gives them in different places.

Experiments:
[1] = cited from earlier work
hLiMTs [2] = details: cited from earlier work
rBsep = details: In vitro Assay; ref Dawson 2012; cited from earlier work
[3] = system: THLE-Null and THLE-3A4 cells; details: In vitro Assay; ref Gustafsson 2014; cited from earlier work
[4] = system: HepG2 C3A spheroid, BSEP, Glu/Gal in HepG2 cells, bioactivation; details: cited from earlier work
[5] = system: HepG2 cells, primary human hepatocytes; details: In vitro Assay; ref Garside 2014; cited from earlier work
HepaRG spheroids = experiment: Combined HCI (HCS) and cellular ATP 3D assay in HepaRG spheroids; details: for AC50 / minimal effective concentration: Homo sapiens
Method: 3D spheroid models consisting of either primary human hepatocytes with non-parenchymal cells (hLiMT’s) or HepaRG cells (HepaRG spheroids) were assessed for size (MS), oxidative stress (OS), MMP, mitochondrial mass (MM), GSH and cellular ATP content following drug exposure. Fluorescent images are acquired using the confocal mode of an ArrayScan™ XTI HCI reader (ThermoScientific) following which cellular ATP was measured using 3D CellTiter-Glo (Promega).

[6] = system: primary human hepatocytes, NIH3T3 fibroblasts, BSEP, CYP3A4; details: cited from earlier work
[7] = Plasma free fraction (fu) and unbound Cmax (Cmax,u); format: in vitro ADME, human; details: unbound plasma Cmax
Method: The prediction of DILI severity was evaluated further using the 3D combined HCI assays using plasma-free fraction. The majority of fu values were obtained from literature, when unavailable in-house prediction was utilised. Unbound plasma Cmax concentrations (Cmax,u) were derived by multiplying total plasma Cmax with the corresponding free fraction (fu) for each compound.

PHH = details: cited from earlier work
human hepatocytes = details: cited from earlier work
[8] = cited from earlier work; remark: listed apart in the source
[9] = read-out: Human plasma Cmax; total plasma Cmax.tot, median of 9 literature references; cited from earlier work
HepG2 cells = details: cited from earlier work
[10] = system: THLE or HepG2 cells, isolated mitochondria, BSEP; details: cited from earlier work
[11] = ref Chen 2011; cited from earlier work
[12] = plasma free fraction; cited from earlier work
hLiMTs [13] = experiment: Combined HCI (HCS) and cellular ATP 3D assay in hLiMTs; details: for AC50 / minimal effective concentration: Homo sapiens
PHH spheroids = details: cited from earlier work
[14] = In vitro Assay, ref Proctor 2017
[15] = Microtissue model structural based (HCI), combined HCS and ATP, MEC < 25 × Cmax.tot cut-off
[16] = In vitro Assay, ref Schadt 2015
[17] = In vitro Assay, ref Persson 2013
[18] = Modeled in vitro assays (cytotoxicity, mitochondrial dysfunction, BSEP), ref Aleo et al. 2019

CCc1nn(CCCN2CCN(c3cccc(Cl)c3)CC2)c(=O)n1CCOc1ccccc1 [nefazodone, reference compound]
DILI severity category (Chen et al. [2016]) ([1]; LTKB DILIrank category, ref Chen et al. 2016): Most
DILI severity category (Chen 2016) ([1]; human DILI classification, LTKB DILIrank, ref Chen et al. 2016): Most
DILI severity category ([1]; human DILI severity, ref Chen et al.): Most
DILI +VE (5-8), DILI -VE (-4) ([1]; ref Chen 2016): +VE
DILI severity category ([1]; ref Chen 2016): vMost-DILI-Concern
hLiMTs ATP <100uM (hLiMTs [2]; [14]): +VE (IC50 threshold of 100 µM)
hLiMTs/100xCmax, Proctor (2017) (hLiMTs [2]; hLiMTs, ATP, IC50 < 100 × Cmax.tot, ref Proctor et al. 2017): +VE (IC50 < 100 × Cmax.tot)
hLiMTs/100uM, Proctor (2017) (hLiMTs [2]; hLiMTs, ATP, IC50 threshold 100 µM, ref Proctor et al. 2017): +VE (IC50 threshold of 100 µM)
Inhibition of rBsep cutoff<1& cmax u>.2 (rBsep): +VE
Inhibition of rBsep cutoff<3 (rBsep): +VE
THLE-Null [3]: +VE
THLE-Null/3A4 [3]: +VE
Bayesian Machine Learning DILI prediction, Williams (2019) ([4]; Bayesian modeling, ref Williams et al. 2019): +VE
Bayesian Machine Learning ([4]; In vitro Assay, ref Williams 2019): +VE
Cluster 1-6 +VE Assay [5]: +VE
HepaRG <25x Avg Cmax ATP (HepaRG spheroids; HepaRG, ATP endpoint, cut-off <25x Avg Cmax): +ve
HepaRG <100x Avg Cmaxu ATP (HepaRG spheroids; HepaRG, ATP endpoint, cut-off <100x Avg Cmaxu): -ve
HepaRG <25x Avg Cmax HCS (HepaRG spheroids; HepaRG, HCS endpoints, cut-off <25x Avg Cmax): +ve
HepaRG <100x Avg Cmaxu HCS (HepaRG spheroids; HepaRG, HCS endpoints, cut-off <100x Avg Cmaxu): -ve
HepaRG <25x Avg Cmax All (HepaRG spheroids; HepaRG, all endpoints (ATP and HCS), cut-off <25x Avg Cmax): +ve
HepaRG Cmax max All (HepaRG spheroids; HepaRG, all endpoints, Cmax max used): +ve
HepaRG Cmax min All (HepaRG spheroids; HepaRG, all endpoints, Cmax min used): +ve
HepaRG <10 uM All (HepaRG spheroids; HepaRG, all endpoints, cut-off <10 uM): +ve (<10 uM)
HepaRG <100x Avg Cmaxu All (HepaRG spheroids; HepaRG, all endpoints, cut-off <100x Avg Cmaxu): -ve
AC50 (HepaRG spheroids; HepaRG, read-out: ATP endpoint AC50): 19.4 µM
minimal effective concentration (HepaRG spheroids; HepaRG, read-out: ATP endpoint MEC): 11.6 µM
AC50 (HepaRG spheroids; HepaRG, read-out: HCS endpoint AC50): 23.8 µM
minimal effective concentration (HepaRG spheroids; HepaRG, read-out: HCS endpoint MEC): 5.67 µM
DILI prediction HepaRG spheroids (HCS-MEC) (HepaRG spheroids; [15]): +VE (MEC < 25 × Cmax.tot cut-off)
DILI in vitro assay prediction, Schadt (2015) ([6]; BSEP & Metabolism based, ref Schadt et al. 2015): +VE
Cellular toxicity (3T3 cells) [6, 16]: -VE
Combined Assay [6, 16]: +VE
GSH adduct HML [6, 16]: +VE
Hepatocyte cellular toxicity [6, 16]: +VE
MitoTox 3T3 [6, 16]: +VE
TDI CYP3A4 [6, 16]: +VE
hBSEP inhibition [6, 16]: +VE
Human plasma Cmax,u [7]: 0.043 µM
PHH/100xCmax, Proctor (2017) (PHH; 2D PHH, ATP, IC50 < 100 × Cmax.tot, ref Proctor et al. 2017): +VE (IC50 < 100 × Cmax.tot)
PHH/100uM, Proctor (2017) (PHH; 2D PHH, ATP, IC50 threshold 100 µM, ref Proctor et al. 2017): +VE (IC50 threshold of 100 µM)
PHH ATP <100uM (PHH; [14]): +VE (IC50 threshold of 100 µM)
Structural based (HCI) (human hepatocytes; In vitro Assay, ref Xu 2008): +VE
DILI in vitro assay prediction, Xu (2008) (human hepatocytes; Structural based (HCI), human hepatocytes, ref Xu et al. 2008): +VE
Assigned DILI category ([8]; Chen et al. 2016 or literature alignment, ref Chen et al. 2016): 3
In vivo DILI ([8]; […]): +VE
In vivo DILI ([8]; ref Aleo 2019): +VE
In vivo DILI ([8]; ref Dawson 2012): +VE
In vivo DILI ([8]; ref Garside 2014): +VE
In vivo DILI ([8]; ref Gustafsson 2014): +VE
In vivo DILI ([8]; ref Persson 2013): +VE
In vivo DILI ([8]; ref Proctor 2017): +VE
In vivo DILI ([8]; ref Schadt 2015): +VE
In vivo DILI ([8]; ref Vorrink 2018): +VE
In vivo DILI ([8]; ref Williams 2019): +VE
In vivo DILI ([8]; ref Xu 2008): +VE
Cmax [9]: 4.25 µM
Cluser analysis (HepG2 cells; [17]): +VE
Structural based (HCI) (HepG2 cells; [17]): +VE
DILI in vitro assay prediction, Persson (2013) (HepG2 cells; Structural based (HCI), HepG2, ref Persson et al. 2013): +VE
Partition Hybrid HRM Score ([10]; In vitro Assay, ref Aleo 2019): +VE
Ro2 Hybrid HRM Score ([10]; In vitro Assay, ref Aleo 2019): +VE
Partition Hybrid HRM Score ≥4, Aleo (2019) [10, 18]: +VE (Partition Hybrid HRM Score ≥4)
Partition Hybrid HRM Score ≥8, Aleo (2019) [10, 18]: +VE (Partition Hybrid HRM Score ≥8)
Rule of Two hybrid HRM Score ≥3, Aleo (2019) [10, 18]: +VE (Rule of Two hybrid HRM Score ≥3)
Rule of Two hybrid HRM Score ≥8, Aleo (2019) [10, 18]: +VE (Rule of Two hybrid HRM Score ≥8)
DILI Score (FDA) (1-8) [11]: 8
fu [12]: 0.010
AC50 (hLiMTs [13]; read-out: ATP endpoint AC50): 12.1 µM
minimal effective concentration (hLiMTs [13]; read-out: ATP endpoint MEC): 8.98 µM
AC50 (hLiMTs [13]; read-out: HCS endpoint AC50): 23.4 µM
minimal effective concentration (hLiMTs [13]; read-out: HCS endpoint MEC): 13.8 µM
DILI prediction hLiMTs (HCS-MEC) (hLiMTs [13]; [15]): +VE (MEC < 25 × Cmax.tot cut-off)
hLiMTs <25x Avg Cmax ATP (hLiMTs [13]; hLiMTs, ATP endpoint, cut-off <25x Avg Cmax): +ve
hLiMTs <100x Avg Cmaxu ATP (hLiMTs [13]; hLiMTs, ATP endpoint, cut-off <100x Avg Cmaxu): -ve
hLiMTs <25x Avg Cmax HCS (hLiMTs [13]; hLiMTs, HCS endpoints, cut-off <25x Avg Cmax): +ve
hLiMTs <100x Avg Cmaxu HCS (hLiMTs [13]; hLiMTs, HCS endpoints, cut-off <100x Avg Cmaxu): -ve
hLiMTs <25x Avg Cmax All (hLiMTs [13]; hLiMTs, all endpoints (ATP and HCS), cut-off <25x Avg Cmax): +ve
hLiMTs Cmax max All (hLiMTs [13]; hLiMTs, all endpoints, Cmax max used): +ve
hLiMTs Cmax min All (hLiMTs [13]; hLiMTs, all endpoints, Cmax min used): +ve
hLiMTs <10 uM All (hLiMTs [13]; hLiMTs, all endpoints, cut-off <10 uM): +ve (<10 uM)
hLiMTs <100x Avg Cmaxu All (hLiMTs [13]; hLiMTs, all endpoints, cut-off <100x Avg Cmaxu): -ve
hLiMTs ATP <20 x Cmax (PHH spheroids; In vitro Assay, ref Vorrink 2018): +VE (IC20 < 20 × Cmax.tot cut-off)
DILI in vitro assay prediction, Vorrink (2018) (PHH spheroids; PHH spheroids, ATP, 14 days, IC20 < 20 × Cmax.tot, ref Vorrink et al. 2018): +VE (IC20 < 20 × Cmax.tot cut-off)
